Experimental data published in patent publication US20230141101A1, “PDE4 INHIBITOR COMPOUND AND MEDICAL USE THEREOF” (Suzhou Longbotai Pharmaceuticals Co., Ltd., priority 2020, published 2023).
pIC50: −log10 of the molar value.

Legend:
Assay type in all cases: biochemical
PDE4A1A = target: T1, PDE4A1A (Homo sapiens, UniProt P27815); assay: PDE4 inhibitory activity assay (FAM-cAMP enzymatic reaction), PDE4A1A
T1 construct: purchased BPS 60040
Procedure, shortened: (§1)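 Read-out: fluorescence-based detection of FAM-cAMP turnover on a multilabel counter, with IC50 derived by fitting inhibition rates. The reaction ran 30 min at room temperature after a 15-min enzyme–compound preincubation, followed by stopping and 60 min further incubation.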

PDE4B1 = target: T2, PDE4B1 (Homo sapiens, UniProt Q07343); assay: PDE4 inhibitory activity assay (FAM-cAMP enzymatic reaction), PDE4B1
T2 construct: purchased BPS 60041
T2 sequence (Q07343 whole entry): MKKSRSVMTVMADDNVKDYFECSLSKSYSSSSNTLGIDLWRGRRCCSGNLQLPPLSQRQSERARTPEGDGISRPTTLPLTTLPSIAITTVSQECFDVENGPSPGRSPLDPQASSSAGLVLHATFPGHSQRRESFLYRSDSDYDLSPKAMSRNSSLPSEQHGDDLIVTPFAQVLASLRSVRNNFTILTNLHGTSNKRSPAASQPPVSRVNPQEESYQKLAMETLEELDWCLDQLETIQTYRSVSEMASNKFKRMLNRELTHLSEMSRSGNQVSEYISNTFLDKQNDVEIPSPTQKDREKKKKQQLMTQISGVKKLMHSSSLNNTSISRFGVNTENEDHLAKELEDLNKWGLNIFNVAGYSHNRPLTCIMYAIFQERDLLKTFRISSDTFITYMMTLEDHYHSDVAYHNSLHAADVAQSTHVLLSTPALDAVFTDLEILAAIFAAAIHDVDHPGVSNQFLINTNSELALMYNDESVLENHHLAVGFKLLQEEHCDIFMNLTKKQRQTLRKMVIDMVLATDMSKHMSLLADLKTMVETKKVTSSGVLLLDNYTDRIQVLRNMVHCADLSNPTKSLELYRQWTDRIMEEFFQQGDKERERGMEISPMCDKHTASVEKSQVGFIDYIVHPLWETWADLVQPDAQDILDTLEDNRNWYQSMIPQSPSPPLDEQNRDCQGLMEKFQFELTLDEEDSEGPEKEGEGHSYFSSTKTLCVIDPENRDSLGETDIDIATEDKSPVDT
Procedure, shortened: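 Each isoform is incubated with test compound for 15 min at room temperature before FAM-cAMP substrate starts a 30-min reaction.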

PDE4D2 = PDE4D2 (Homo sapiens, UniProt Q08499); assay: PDE4 inhibitory activity assay (FAM-cAMP enzymatic reaction), PDE4D2
PDE4D2, sequence (Q08499 303-809): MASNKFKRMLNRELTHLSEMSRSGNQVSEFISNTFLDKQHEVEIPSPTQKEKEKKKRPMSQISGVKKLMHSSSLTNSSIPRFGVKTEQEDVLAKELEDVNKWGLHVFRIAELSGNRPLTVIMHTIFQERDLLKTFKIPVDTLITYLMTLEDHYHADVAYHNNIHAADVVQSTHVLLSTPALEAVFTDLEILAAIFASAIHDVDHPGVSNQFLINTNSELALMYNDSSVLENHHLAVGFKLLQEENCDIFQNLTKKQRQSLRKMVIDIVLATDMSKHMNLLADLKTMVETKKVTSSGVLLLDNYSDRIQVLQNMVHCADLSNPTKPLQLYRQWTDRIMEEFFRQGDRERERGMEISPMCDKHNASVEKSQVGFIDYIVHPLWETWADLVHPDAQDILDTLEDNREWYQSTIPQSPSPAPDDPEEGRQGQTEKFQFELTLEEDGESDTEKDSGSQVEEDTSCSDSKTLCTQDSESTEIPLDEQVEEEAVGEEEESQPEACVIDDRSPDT
Procedure, shortened: as §1

[1] = compared with Apremilast and Example 11 of WO2018036470 (WX011)

T1 sequence (P27815 1-647 isoform P27815-4): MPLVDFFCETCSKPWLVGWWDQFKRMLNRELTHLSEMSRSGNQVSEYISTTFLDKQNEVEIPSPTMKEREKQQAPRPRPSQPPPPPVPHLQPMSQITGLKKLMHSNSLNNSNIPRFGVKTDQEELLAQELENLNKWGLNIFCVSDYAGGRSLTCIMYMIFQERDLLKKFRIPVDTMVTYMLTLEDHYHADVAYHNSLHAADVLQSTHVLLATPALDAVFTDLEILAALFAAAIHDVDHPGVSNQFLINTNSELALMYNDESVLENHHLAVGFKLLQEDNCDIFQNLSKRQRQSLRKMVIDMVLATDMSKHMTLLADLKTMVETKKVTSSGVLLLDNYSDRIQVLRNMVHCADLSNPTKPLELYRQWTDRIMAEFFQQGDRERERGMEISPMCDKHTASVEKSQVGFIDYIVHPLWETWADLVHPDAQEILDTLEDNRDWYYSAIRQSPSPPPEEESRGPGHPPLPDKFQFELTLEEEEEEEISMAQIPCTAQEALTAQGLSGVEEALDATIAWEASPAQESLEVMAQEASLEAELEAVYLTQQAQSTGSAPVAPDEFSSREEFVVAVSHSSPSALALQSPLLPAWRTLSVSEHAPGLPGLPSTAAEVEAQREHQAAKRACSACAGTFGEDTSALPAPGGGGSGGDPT

Structure (SMILES) | PDE4 A1 inhibitory effect at 20 nM (PDE4A1A) | PDE4 B1 inhibitory effect at 20 nM (PDE4B1) | PDE4 D2 inhibitory effect at 20 nM (PDE4D2) | inhibitory activity against PDE4A1A compared with Apremilast and WX011 (PDE4A1A; [1]) | inhibitory activity against PDE4B1 compared with Apremilast and WX011 (PDE4B1; [1]) | inhibitory activity against PDE4D2 compared with Apremilast and WX011 (PDE4D2; [1]) | pIC50 (PDE4D2; read-out: PDE4 D2 inhibitory activity (IC50 value))
CCOc1nc([C@@H](CS(C)(=O)=O)N2C(=O)c3csc([N+](=O)[O-])c3C2=O)ccc1OC [Ex. 222, (S)-5-(1-(6-ethoxy-5-methoxypyridin-2-yl)-2-(methylsulfonyl)ethyl)-1-nitro-4H-thieno[3,4-c]pyrrol-4,6(5H)-dione] | + | + | + |  |  |  | 
CCOc1nc([C@@H](CS(C)(=O)=O)n2c(=O)n(C)c3cc(-c4ccccc4CC)ccc32)ccc1OC [Ex. 151, (S)-1-(1-(6-ethoxy-5-methoxypyridin-2-yl)-2-(methylsulfonyl)ethyl)-5-(2-ethylphenyl)-3-methyl-1H-benzo[d]imidazol-2(3H)-one] | + | + | + |  |  |  | 
CCOc1nc([C@@H](CS(C)(=O)=O)n2c(=O)[nH]c3cc(-c4ccc(F)cc4F)ccc32)ccc1OC [Ex. 156, (S)-5-(2,4-difluorophenyl)-1-(1-(6-ethoxy-5-methoxypyridin-2-yl)-2-(methylsulfonyl)ethyl)-1H-benzo[d]imidazol-2(3H)-one] | + | + | + |  |  |  | 
CCOc1nc([C@@H](CS(C)(=O)=O)N2C(=O)c3csc(NC(=O)CC)c3C2=O)ccc1OC [Ex. 226, (S)—N-(5-(1-(6-ethoxy-5-methoxypyridin-2-yl)-2-(methylsulfonyl)ethyl)-4,6-dioxo-5,6-dihydro-4H-thieno[3,4-c]pyrrol-1-yl)propionamide] | + | + | + |  |  |  | 
CCOc1nc([C@@H](CS(C)(=O)=O)N2C(=O)c3csc(N)c3C2=O)ccc1OC [Ex. 223, (S)-1-amino-5-(1-(6-ethoxy-5-methoxypyridin-2-yl)-2-(methylsulfonyl)ethyl)-4H-thieno[3,4-c]pyrrol-4,6 (5H)-dione] | + | + | + |  |  |  | 
CCOc1nc([C@@H](CS(C)(=O)=O)n2c(=O)[nH]c3c(C)c(-c4ccccc4C(F)(F)F)cnc32)ccc1OC [Ex. 14, (S)-3-(1-(6-ethoxy-5-methoxypyridin-2-yl)-2-(methylsulfonyl)ethyl)-7-methyl-6-(2-(trifluoromethyl)phenyl)-1H-imidazo[4,5-b]pyridin-2(3H)-one] | + | + | = |  |  |  | 
CCOc1nc([C@@H](CS(C)(=O)=O)n2c(=O)[nH]c3cc(-c4ccc(F)cc4C)cnc32)ccc1OC [Ex. 107, (S)-6-(4-fluoro-2-methylphenyl)-3-(1-(6-ethoxy-5-methoxypyridin-2-yl)-2-(methylsulfonyl)ethyl)-1H-imidazo[4,5-b]pyridin-2(3H)-one] | + | + | + |  |  |  | 
CCOc1nc([C@@H](CS(C)(=O)=O)n2c(=O)n(C)c3cc(-c4ccc(F)cc4F)cnc32)ccc1OC [Ex. 95, (S)-6-(2,4-difluorophenyl)-3-(1-(6-ethoxy-5-methoxypyridin-2-yl)-2-(methylsulfonyl)ethyl)-1-methyl-1H-imidazo[4,5-b]pyridin-2(3H)-one] | + | + | + |  |  |  | 
CCOc1nc([C@@H](CS(C)(=O)=O)n2c(=O)[nH]c3c(C)c(-c4ccc(C)cc4F)cnc32)ccc1OC [Ex. 40, (S)-6-(2-fluoro-4-methylphenyl)-3-(1-(6-ethoxy-5-methoxypyridin-2-yl)-2-(methylsulfonyl)ethyl)-7-methyl-1H-imidazo[4,5-b]pyridin-2(3H)-one] | + | + | + |  |  |  | 
CCOc1nc([C@@H](CS(C)(=O)=O)n2c(=O)[nH]c3cc(-c4cc(F)ccc4F)cnc32)ccc1OC [Ex. 92, (S)-6-(2,5-difluorophenyl)-3-(1-(6-ethoxy-5-methoxypyridin-2-yl)-2-(methylsulfonyl)ethyl)-1H-imidazo[4,5-b]pyridin-2(3H)-one] | + | + | + |  |  |  | 
CCOc1nc([C@H](CS(C)(=O)=O)n2c(=O)n(CC(F)(F)F)c3c(C)c(-c4ccccc4)cnc32)ccc1OC [Ex. 54, (R)-3-(1-(6-ethoxy-5-methoxypyridin-2-yl)-2-(methylsulfonyl)ethyl)-7-methyl-6-phenyl-1-(2,2,2-trifluoroethyl)-1H-imidazo[4,5-b]pyridin-2(3H)-one] | − | − | − |  |  |  | 
CCOc1nc([C@@H](CS(C)(=O)=O)n2c(=O)[nH]c3c(-c4ccccc4)cccc32)ccc1OC [Ex. 206, (S)-1-(1-(6-ethoxy-5-methoxypyridin-2-yl)-2-(methylsulfonyl)ethyl)-4-phenyl-1H-benzo[d]imidazol-2(3H)-one] | + | + | + |  |  |  | 
CCOc1nc([C@@H](CS(C)(=O)=O)n2c(=O)n(CCS(C)(=O)=O)c3cc(Br)ccc32)ccc1OC [Ex. 210, (S)-5-bromo-1-(1-(6-ethoxy-5-methoxypyridin-2-yl)-2-(methylsulfonyl)ethyl)-3-(2-(methylsulfonyl)ethyl)-1H-benzo[d]imidazol-2(3H)-one] | − | − | − |  |  |  | 
CCOc1nc([C@@H](CS(C)(=O)=O)n2c(=O)n(C)c3cc(-c4cc(C)ccc4C)cnc32)ccc1OC [Ex. 102, (S)-6-(2,5-dimethylphenyl)-3-(1-(6-ethoxy-5-methoxypyridin-2-yl)-2-(methylsulfonyl)ethyl)-1-methyl-1H-imidazo[4,5-b]pyridin-2(3H)-one] | + | + | + |  |  |  | 
CCOc1nc([C@@H](CS(C)(=O)=O)n2c(=O)n(C)c3cc(-c4cc(OC)ccc4F)ccc32)ccc1OC [Ex. 182, (S)-5-(2-fluoro-5-methoxyphenyl)-1-(1-(6-ethoxy-5-methoxypyridin-2-yl)-2-(methylsulfonyl)ethyl)-3-methyl-1H-benzo[d]imidazol-2(3H)-one] | + | + | + |  |  |  | 
CCOc1nc([C@@H](CS(C)(=O)=O)n2c(=O)n(CC(F)(F)F)c3c(C)c(-c4ccccc4F)cnc32)ccc1OC [Ex. 51, (S)-3-(1-(6-ethoxy-5-methoxypyridin-2-yl)-2-(methylsulfonyl)ethyl)-6-(2-fluorophenyl)-7-methyl-1-(2,2,2-trifluoroethyl)-1H-imidazo[4,5-b]pyridin-2(3H)-one] | + | + | + |  |  |  | 
CCOc1nc([C@@H](CS(C)(=O)=O)n2c(=O)[nH]c3cc(-c4c(C)cccc4C)ccc32)ccc1OC [Ex. 168, (S)-5-(2,6-dimethylphenyl)-1-(1-(6-ethoxy-5-methoxypyridin-2-yl)-2-(methylsulfonyl)ethyl)-1H-benzo[d]imidazol-2(3H)-one] | + | + | + |  |  |  | 
CCOc1nc([C@@H](CS(C)(=O)=O)n2c(=O)n(CC(F)F)c3c(C)c(-c4ccccc4C)cnc32)ccc1OC(C)C [Ex. 72, (S)-1-(2,2-difluoroethyl)-3-(1-(6-ethoxy-5-isopropoxypyridin-2-yl)-2-(methylsulfonyl)ethyl)-7-methyl-6-(o-methylphenyl)-1H-imidazo[4,5-b]pyridin-2(3H)-one] | + | + | + |  |  |  | 
CCOc1nc([C@@H](CS(C)(=O)=O)n2c(=O)n(C3CC3)c3cc(-c4ccccc4F)ccc32)ccc1OC [Ex. 208, (S)-3-cyclopropyl-1-(1-(6-ethoxy-5-methoxypyridin-2-yl)-2-(methylsulfonyl)ethyl)-5-(2-fluorophenyl)-1H-benzo[d]imidazol-2(3H)-one] | + | + | + |  |  |  | 
CCOc1nc([C@@H](CS(C)(=O)=O)n2c(=O)[nH]c3c(C)c(-c4ccccc4C)cnc32)ccc1OC [Ex. 8, (S)-3-(1-(6-ethoxy-5-methoxypyridin-2-yl)-2-(methylsulfonyl)ethyl)-7-methyl-6-(o-methylphenyl)-1H-imidazo[4,5-b]pyridin-2(3H)-one] |  |  |  | significantly enhanced inhibitory activity | significantly enhanced inhibitory activity | significantly enhanced inhibitory activity | 8.42
CCOc1nc([C@@H](CS(C)(=O)=O)n2c(=O)[nH]c3cc(-c4cc(F)ccc4OC)ccc32)ccc1OC [Ex. 186, (S)-5-(5-fluoro-2-methoxyphenyl)-1-(1-(6-ethoxy-5-methoxypyridin-2-yl)-2-(methylsulfonyl)ethyl)-1H-benzo[d]imidazol-2(3H)-one] | + | + | + |  |  |  | 
CCOc1nc([C@@H](CS(C)(=O)=O)n2c(=O)[nH]c3c(C)c(-c4ccc(F)cc4OC)cnc32)ccc1OC [Ex. 45, (S)-6-(4-fluoro-2-methoxyphenyl)-3-(1-(6-ethoxy-5-methoxypyridin-2-yl)-2-(methylsulfonyl)ethyl)-7-methyl-1H-imidazo[4,5-b]pyridin-2(3H)-one] | + | + | + |  |  |  | 
